In patent US9617256B2 (priority 2007, dated 2017):
Values after ≈ are worked out from the molar mass of the structure shown. Where two headings read alike, the source gives them in different places.

Legend:
[1] = system: AABA1060 (clinical isolate of Acinetobacter baumannii); assay: MIC broth microdilution, AABA1060; format: cell-based; details: Acinetobacter baumannii, read-out: MIC AABA1060
Experimental: (§1) Bacterial isolates were cultivated from −70° C. frozen stocks by overnight passages at 35° C. in ambient air on Mueller-Hinton agar (Beckton Dickinson, Franklin Lakes, N.J.). Clinical isolates tested were obtained from various geographically diverse hospitals in the US and abroad (Focus Diagnostics, Herndon, Va. and JMI, North Liberty, Iowa). Quality control strains were from the American Type Culture Collection (ATCC; Rockville, Md.). Additional primary panel strains were generated using standard molecular biology techniques.
(§2) Minimum Inhibitory Concentrations (MICs) were determined by the broth microdilution method in accordance with the Clinical and Laboratory Standards Institute (CLSI) guidelines. In brief, organism suspensions were adjusted to a 0.5 McFarland standard to yield a final inoculum between 3×10^5 and 7×10^5 colony-forming units (CFU)/mL. Drug dilutions and inocula were made in sterile, cation adjusted Mueller-Hinton Broth (Beckton Dickinson). An inoculum volume of 100 μL was added to wells containing 100 μL of broth with 2-fold serial dilutions of drug. All inoculated microdilution trays were incubated in ambient air at 35° C. for 18-24 hours. […] Performance of the assay was monitored by the use of laboratory quality-control strains and levofloxacin, a compound with a defined MIC spectrum, in accordance with CLSI guidelines.
(§3) *AECO001 is ATCC25922, AECO063 is ATCC25922 bearing an acrAB mutation, APAE001 is ATCC27853, APAE006 is a strain of P. aeruginosa in which all efflux pumps are inactivated, APAE006+PMBN indicates MICs with the indicated strain in the presence of 8 micrograms per milliliter of polymyxin B nonapeptide, AABA1060 is a clinical isolate of Acinetobacter baumannii, ASAU001 is a laboratory strain of S. aureus (ATCC29213).

[2] = system: AECO063 (ATCC25922 bearing an acrAB mutation); assay: microbe, parasite or virus in culture; format: cell-based, E. coli; details: Escherichia coli, ATCC25922, read-out: MIC AECO063
Experimental: as §1, §2, §3

[3] = system: ASAU001 (laboratory strain of S. aureus, ATCC29213); assay: MIC broth microdilution, ASAU001; format: cell-based; details: Staphylococcus aureus, ATCC29213, read-out: MIC ASAU001
Experimental: as §1, §2, §3

[4] = system: APAE006 in the presence of 8 micrograms per milliliter of polymyxin B nonapeptide; format: cell-based, P. aeruginosa; details: APAE006 with 8 micrograms per milliliter polymyxin B nonapeptide
Experimental: as §1, §2, §3

[5] = system: AECO001 (ATCC25922); assay: MIC broth microdilution, AECO001; format: cell-based, E. coli; details: for MIC: Escherichia coli
Experimental: as §1, §2, §3

[6] = system: APAE001 (ATCC27853); assay: MIC broth microdilution, APAE001; format: cell-based, P. aeruginosa; details: Pseudomonas aeruginosa
Experimental: as §1, §2, §3

[7] = system: APAE006 (strain of P. aeruginosa in which all efflux pumps are inactivated); assay: microbe, parasite or virus in culture; format: cell-based; details: Pseudomonas aeruginosa
Experimental: as §1, §2, §3

[8] = ATCC25922, read-out: MIC AECO001
[9] = ATCC25922, read-out: MIC AECO001 HSA AGP
[10] = ATCC27853, read-out: MIC APAE001, APAE001 (ATCC27853)
[11] = read-out: MIC APAE006, APAE006, all efflux pumps inactivated
[12] = ATCC27853, read-out: MIC APAE001, APAE001 is ATCC27853
[13] = read-out: MIC APAE006, P. aeruginosa, all efflux pumps inactivated

SMILES | MIC [1] [µg/mL] | MIC [2] [µg/mL] | MIC [3] [µg/mL] | MIC APAE006 + PMBN [4] | MIC [5, 8] [µg/mL] | MIC [5, 9] [µg/mL] | MIC [6, 10] [µg/mL] | MIC [7, 11] [µg/mL] | MIC [6, 12] [µg/mL] | MIC [7, 13] [µg/mL] | Ratio of MICs on AECO001 [Cpd (A = —CHCH3NH2)/Cpd (A = —C(CH3)2NH2)] ([5]; MIC of paired compound with A = —CHCH3NH2 divided by MIC of compound with A = —C(CH3)2NH2, n=2 data, pairs identical except for the A moiety)
CCOCc1ccc(C#Cc2ccc(C(=O)NC(C(=O)NO)C(C)(C)N)cc2)cc1 (centres unmarked) [Compound 126-2] | < 2 | < 2 | 16 to 64 (≈ 39.1 to 156 µM) | A (MIC's of 2.0 μg/mL or less = A) | < 2 | < 2 | 2 to 16 (≈ 4.88 to 39.1 µM) | < 2 |  |  | 
C[C@@H](N)[C@H](NC(=O)c1ccc(C#CC#Cc2cnc(N)s2)cc1)C(=O)NO [Example 88-17] | 2 to 16 (≈ 5.22 to 41.7 µM) | < 2 | 16 to 64 (≈ 41.7 to 167 µM) | A (MIC's of 2.0 μg/mL or less = A) | < 2 | 16 to 64 (≈ 41.7 to 167 µM) | < 2 | < 2 |  |  | 
CSC[C@H](NS(=O)(=O)c1ccc(C#Cc2ccc(CN3CCOCC3)cc2)cc1)C(=O)NO [Example 62-9] |  |  | > 64 |  | 16 to 64 (≈ 32.7 to 131 µM) |  |  |  | > 64 | 2 to 16 (≈ 4.08 to 32.7 µM) | 
C[C@@H](N)[C@H](NC(=O)c1ccc(C#Cc2ccc(OC3CC3)cc2)cc1)C(=O)NO [Example 125-1, N-((1S,2R)-2-Amino-1-hydroxycarbamoyl-propyl)-4-(4-cyclopropoxy-phenylethynyl)-benzamide] | < 2 | < 2 | 16 to 64 (≈ 40.7 to 163 µM) | A (MIC's of 2.0 μg/mL or less = A) | < 2 | 2 to 16 (≈ 5.08 to 40.7 µM) | 2 to 16 (≈ 5.08 to 40.7 µM) | < 2 |  |  | 
C[C@@H](N)[C@H](NC(=O)c1ccc(/C=C/C#CC2CCCCC2)cc1)C(=O)NO [Example 114-17] | 2 to 16 (≈ 5.41 to 43.3 µM) | < 2 | 2 to 16 (≈ 5.41 to 43.3 µM) | A (MIC's of 2.0 μg/mL or less = A) | < 2 | 2 to 16 (≈ 5.41 to 43.3 µM) | 2 to 16 (≈ 5.41 to 43.3 µM) | < 2 |  |  | 
CCC#CC#Cc1ccc(C(=O)N[C@H](C(=O)NO)[C@@H](C)N)cc1 [Example 91-7] | 2 to 16 (≈ 6.38 to 51.1 µM) | < 2 | 2 to 16 (≈ 6.38 to 51.1 µM) | A (MIC's of 2.0 μg/mL or less = A) | < 2 | 2 to 16 (≈ 6.38 to 51.1 µM) | < 2 | < 2 |  |  | 
CCCC#CC#Cc1ccc(C(=O)N[C@H](C(=O)NO)C(C)(C)N)cc1 [Example 91-9] | < 2 | < 2 | 2 to 16 (≈ 5.86 to 46.9 µM) | A (MIC's of 2.0 μg/mL or less = A) | < 2 | < 2 | < 2 | < 2 |  |  | 5.2
C[C@@H](N)[C@H](NC(=O)c1ccc(C#CC#C[C@H](C)N2CCOCC2)cc1)C(=O)NO [Example 92-2, N-((2S,3R)-3-amino-1-(hydroxyamino)-1-oxobutan-2-yl)-4-((S)-5-morpholinohexa-1,3-diynyl)benzamide] | 16 to 64 (≈ 40.2 to 161 µM) | 2 to 16 (≈ 5.02 to 40.2 µM) | 16 to 64 (≈ 40.2 to 161 µM) | B (MIC's of greater than 2.0 μg/mL to 16.0 μg/mL = B) | 16 to 64 (≈ 40.2 to 161 µM) | 16 to 64 (≈ 40.2 to 161 µM) | 16 to 64 (≈ 40.2 to 161 µM) | 2 to 16 (≈ 5.02 to 40.2 µM) |  |  | 
O=C(NO)[C@@H]1CCCN1S(=O)(=O)c1ccc(C#Cc2ccc(CN3CCOCC3)cc2)cc1 [Example 62-10] |  |  | > 64 |  | 2 to 16 (≈ 4.26 to 34.1 µM) |  |  |  | > 64 | < 2 | 
C[C@@H](O)[C@H](NC(=O)c1ccc(C#C/C=C/c2ccncc2)cc1)C(=O)NO [Example 106-1, N-((1S,2R)-2-Hydroxy-1-hydroxycarbamoyl-propyl)-4-((E)-4-pyridin-4-yl-but-3-en-1-ynyl)-benzamide] | 16 to 64 (≈ 43.8 to 175 µM) | < 2 | 16 to 64 (≈ 43.8 to 175 µM) | A (MIC's of 2.0 μg/mL or less = A) | < 2 | 2 to 16 (≈ 5.47 to 43.8 µM) | 16 to 64 (≈ 43.8 to 175 µM) | < 2 |  |  | 
CC(C)CC#CC#Cc1ccc(C(=O)N[C@H](C(=O)NO)C(C)(C)O)cc1 [Example 91-19] | 2 to 16 (≈ 5.61 to 44.9 µM) | < 2 | 16 to 64 (≈ 44.9 to 180 µM) | A (MIC's of 2.0 μg/mL or less = A) | < 2 | < 2 | 2 to 16 (≈ 5.61 to 44.9 µM) | < 2 |  |  | 
CC(C)(O)[C@H](NC(=O)c1ccc(C#CC#CC2CC2)cc1)C(=O)NO [Example 91-6] | < 2 | < 2 | 16 to 64 (≈ 47 to 188 µM) | A (MIC's of 2.0 μg/mL or less = A) | < 2 | < 2 | < 2 | < 2 |  |  | 
